Read-outs that look alike come from different tables or passages of the source.
Columns and labels:
[1] = Stability in rat plasma at room temperature; format: in vitro ADME
Description: (§1) Tazarotene, tazarotene sulfoxide and tazarotene benzoate were incubated at room temperature with human and rat plasma. The incubation was carried out in duplicate and samples were taken at specific time points for stability analyses (i) rat samples (0 hour, 2 hours and 4 hours) and (ii) human samples (0 hour, 2 hours, 4 hours and 8 hours). Samples were analyzed by LC-MS/MS.

[2] = HPLC analysis of mixtures of DUAC gel and TAZORAC cream (degradation of tazarotene in the presence of benzoyl peroxide); format: physicochemical; details: fresh samples
Description: DUAC® gel (1% clindamycin and 5% benzoyl peroxide marketed by Stiefel Laboratories, Inc.) and TAZORAC® cream (0.1% tazarotene marketed by Allergan, Inc.) have been successfully used to treat facial acne. However, these topical treatments are not approved for concomitant use. To study whether tazarotene is susceptible to oxidative decomposition by benzoyl peroxide, an in vitro laboratory study was conducted wherein a mixture of DUAC gel and TAZORAC cream was prepared.
Samples were prepared by taking equal portions of DUAC gel and TAZORAC cream and mixing them thoroughly at room temperature with a spatula in a suitable container to form a uniform mixture. The initial samples were analyzed immediately by HPLC. The other samples were placed into an oven at 35° C. and removed for analysis after one, two, four, six and eight hours. An allowance was made for product evaporation over the course of the study.

[3] = Stability in human plasma at room temperature; format: in vitro ADME
Description: as §1

in vitro = details: human, liver microsomes, pH 7.4, Half-life, HLM
Description: (§2) Hepatic microsomal reactions were carried out in microcentrifuge tubes in the following manner. Human liver microsomes (0.5 or 1.0 mg/ml protein), Test Article (1 or 10 μM), paraoxon (0, 10 or 100 μM), NADPH regenerating system (10 mM glucose-6-phosphate, 1 unit/ml glucose-6-phosphate dehydrogenase, 1 mM NADP^+), magnesium chloride (5 mM) in 0.1 M potassium phosphate buffer, pH 7.4 were incubated at 37° C. in a shaking water bath. Reactions were initiated with the addition of substrate with the exception of the zero-time incubations. The total reaction volume was 0.2 ml. The reactions were incubated for 15, 30, 45 or 60 minutes, terminated with 0.2 ml ice-cold acetonitrile and then placed on ice. For zero-time incubations, ice cold acetonitrile was added to the mixture containing microsomes, along with NADPH regenerating system, magnesium chloride in phosphate buffer and the Test Article. Each time point was carried out in triplicate.
(§3) Disappearance of Test Article and formation of metabolites following in vitro metabolism were determined by LC-MS/MS using multiple reaction monitoring. LightSight® software (Applied Biosystems, Foster City, Calif.) was used to generate the mass spectrometry methods and carry out the data mining.
(§4) Control incubations were carried out with the identical incubation procedures as described above with the following exceptions. In negative control reactions, microsomes were not included. […] Duplicate reactions with an initial concentration of 10 μM were incubated for 0 or 30 minutes. Microsomal metabolic stability of 7-ethoxycoumarin was determined by LC-MS/MS.

[4] = In vitro application of DUAC gel/TAZORAC cream mixture to split-thickness human skin; tazarotene and degradants quantified by LC/MS/MS; format: in vitro ADME; details: for detected in the receiving medium (passing through the skin): DUAC/TAZORAC mixture applied to split-thickness human skin
Description: An in vitro study was conducted to assess the formation of tazarotene degradants following the application of a mixture of DUAC gel and TAZORAC cream to human skin.
Equal portions of DUAC gel and TAZORAC cream were dispensed into a glass vial and mixed for approximately three minutes with a metal spatula to ensure a homogenous mixture. Samples of European DUAC gel and US DUAC gel were used in separate experiments. […] The test mixtures were then applied to the surface of split-thickness skin (˜0.25 mm) at a dose of 15.6 mg/cm^2 and spread evenly using a positive displacement pipette.
After 2 and 6 hours, the skin samples were washed, tape stripped twice, and then the epidermis was peeled from the dermis using a heat block. The skin samples were then extracted with acetonitrile overnight at 4° C. The distribution of tazarotene and its degradants within the epidermis, dermis and surface wash were quantified by LC/MS/MS with a 50 pg/mL LOQ. The experiments were performed under yellow light conditions. For the purposes of comparison, mixtures of DUAC gel and TAZORAC cream were also prepared and retained for stability testing at 0, 2 and 6 hour time points.

[5] = for k constant: HLM
Description: as §2, §3, §4

[6] = test system: Reconstructed human epidermis (RHE) tissues; experiment: RT-qPCR gene expression of K10, K19, filaggrin, K4 and K13 in reconstructed human epidermis (RHE) cultures; format: cell-based; details: 72 h, 2.83 mM in OD/10% DMSO, 6 μl
Description: Reconstructed human epidermis (RHE) tissues were cultured in-house as previously described by Poumay et al. Briefly, polycarbonate culture inserts (12 mm diameter and 0.4 μm pore size, Millipore) were filled with 150 μL of a suspension containing approximately 5×10^5 primary adult human keratinocytes. The inserts received another 500 μL of keratinocyte culture media and were placed in a 6-well plate (1 insert/well) containing 2.5 mL of RHE Growth Media (Epilife media +1.5 mM CaCl2). RHE cultures were incubated at 37° C. in a humidified atmosphere containing 5% CO2, for 24 hours. Subsequently (on Day 0), RHE cultures were exposed to the air-liquid interface by removing the RHE Growth Media from the top of the cultures, and replacing with 1.5 mL/well of RHE Growth Media containing 50 μg/mL vitamin C. Media was changed every other day until the cultures were dosed with Test Articles. A stock solution of 0.1% tazarotene (2.83 mM at 99.5% purity) in OD/10% DMSO was prepared. For tazarotene benzoate, hydroxytazarotenic acid, keto tazarotenic acid, keto tazarotene, and tazarotene nicotinate, a 10 mg/mL stock solution (in DMSO) was already prepared. From this stock solution, a 2.83 mM working solution (in octyldodecanol) was prepared. All other tested compounds were resuspended in DMSO and OD to obtain a final concentration of 2.83 mM in OD/10% DMSO. On Day 12, the cultures were placed in 60 mm petri dishes containing 3 mL of RHE Growth Media (+VitC). Test articles (6 μl) were applied to triplicate cultures and cultures were incubated at 37° C. for 72 hours. Untreated and OD alone served as negative controls. At the end of the incubation period, the growth media was collected and stored at −20° C. The tissues were cut in half: one half was placed in 10% NBF for histology, and the other half was placed in RNAlater™ solution for RT-qPCR. RNA was isolated and concentrations were determined using a NanoDrop spectrophotometer. In addition to using the same amount of RNA for each sample, data was normalized to internal GAPDH mRNA levels and is expressed as relative quantification (RQ) to untreated controls. RNA extracts from each replicate were amplified using RT-qPCR. The relative gene expression of five biomarkers was determined: Keratin 10, Keratin 19, Filaggrin, Keratin 4, and Keratin 13.

[7] = 1 μM initial concentration, Complete (with NADPH), 0 min
[8] = 1 μM initial concentration, Complete (with NADPH), 15 min
[9] = 1 μM initial concentration, Complete (with NADPH), 30 min
[10] = 1 μM initial concentration, Complete (with NADPH), 45 min
[11] = 1 μM initial concentration, Complete (with NADPH), 60 min
[12] = 1 μM initial concentration, Without NADPH, 0 min
[13] = 1 μM initial concentration, Without NADPH, 15 min
[14] = 1 μM initial concentration, Without NADPH, 30 min
[15] = 1 μM initial concentration, Without NADPH, 45 min
[16] = 1 μM initial concentration, Without NADPH, 60 min
[17] = 10 μM initial concentration, Complete (with NADPH), 0 min
[18] = 10 μM initial concentration, Complete (with NADPH), 15 min
[19] = 10 μM initial concentration, Complete (with NADPH), 30 min
[20] = 10 μM initial concentration, Complete (with NADPH), 45 min
[21] = 10 μM initial concentration, Complete (with NADPH), 60 min
[22] = 10 μM initial concentration, Without NADPH, 0 min
[23] = 10 μM initial concentration, Without NADPH, 15 min
[24] = 10 μM initial concentration, Without NADPH, 30 min
[25] = 10 μM initial concentration, Without NADPH, 45 min
[26] = 10 μM initial concentration, Without NADPH, 60 min
[27] = read-out: K4 Fold Change vs Untreated/OD controls (upregulation)
[28] = read-out: K13 Fold Change vs Untreated/OD controls (upregulation)
[29] = read-out: K19 Fold Change vs Untreated/OD controls (upregulation)

For `CCOC(=O)c1ccc(C#Cc2ccc3c(c2)C(C)(C)CC(OC(=O)c2ccccc2)S3)nc1` (stereo not shown) [Compound 4, 6-(2-(2-benzoyloxy-4,4-dimethylthiochroman-6-yl)ethynyl)nicotinic acid, ethyl ester], the “concentration in rat plasma” value ([1]; 0 hour) was 59.8 ng/mL, the “concentration in rat plasma” value ([1]; 2 hours) was 15.0 ng/mL and the “concentration in rat plasma” value ([1]; 4 hours) was 2.29 ng/mL. The “% Label Tazarotene Benzoate” value ([2]; 35° C., 4 hours) was about 6.3 % Label, the “concentration in human plasma” value ([3]; 0 hour) was 52.0 ng/mL and the “concentration in human plasma” value ([3]; 2 hours) was 52.0 ng/mL. The “concentration in human plasma” value ([3]; 4 hours) was 50.0 ng/mL, the “concentration in human plasma” value ([3]; 8 hours) was 45.8 ng/mL and the half-life at 1 µM (in vitro; Complete) was 7.76 min. The half-life at 1 µM (in vitro; Without NADPH) was 7.19 min, the half-life at 10 µM (in vitro; Complete) was 71.4 min and the half-life at 10 µM (in vitro; Without NADPH) was 47.5 min. The “detectable in epidermis and dermis samples” value ([4]; 2 and 6 hours post-application, all samples including the placebo) was “detectable in all samples”, the “detected in the receiving medium (passing through the skin)” value [4] was “could not be detected” and the “quantity in stability samples at the 6 hour time point relative to the 2 hour time point” value ([4]; mixture of DUAC gel and TAZORAC cream retained for stability testing) was “significant increase”. For the same compound, the “Test Article remaining, percent of initial concentration” value (“Test Article remaining, percent” below) [5, 7] was 100%, the “Test Article remaining, percent” value [5, 8] was 20.3% and the “Test Article remaining, percent” value [5, 9] was 4.45%. The “Test Article remaining, percent” value [5, 10] was 1.47%, the “Test Article remaining, percent” value [5, 11] was 0.73% and the “Test Article remaining, percent” value [5, 12] was 100%. The “Test Article remaining, percent” value [5, 13] was 17.3%, the “Test Article remaining, percent” value [5, 14] was 2.97% and the “Test Article remaining, percent” value [5, 15] was 1.07%. For the same compound, the “Test Article remaining, percent” value [5, 16] was 0.53%, the “Test Article remaining, percent” value [5, 17] was 100% and the “Test Article remaining, percent” value [5, 18] was 99.3%. For the same compound, the “Test Article remaining, percent” value [5, 19] was 73.4%, the “Test Article remaining, percent” value [5, 20] was 63.2% and the “Test Article remaining, percent” value [5, 21] was 55.2%. For the same compound, the “Test Article remaining, percent” value [5, 22] was 100%, the “Test Article remaining, percent” value [5, 23] was 87.0% and the “Test Article remaining, percent” value [5, 24] was 64.0%. The “Test Article remaining, percent” value [5, 25] was 51.0%, the “Test Article remaining, percent” value [5, 26] was 41.0% and the k constant ([5]; 1 μM, Complete) was −0.0893. For the same compound, the k constant ([5]; 1 μM, Without NADPH) was −0.0964, the k constant ([5]; 10 μM, Complete) was −0.0097 and the k constant ([5]; 10 μM, Without NADPH) was −0.0146. The fold induction at 2830 µM [6, 27] was 29, the fold induction at 2830 µM [6, 28] was 7 and the fold induction at 2830 µM [6, 29] was 8.
For `CCOC(=O)c1ccc(C#Cc2ccc3c(c2)C(C)(C)CCS3)nc1` [Tazarotene, ethyl 6-[2-(4,4-dimethylthiochroman-6-yl)-ethynyl nicotinate], the “concentration in rat plasma” value ([1]; 0 hour) was 16.4 ng/mL, the “concentration in rat plasma” value ([1]; 2 hours) was “<LOD” and the “concentration in rat plasma” value ([1]; 4 hours) was “<LOD”. For the same compound, the tazarotene lost ([2]; mixture of DUAC gel and TAZORAC cream, after four hours) was “approximately 22%”, the “concentration in human plasma” value ([3]; 0 hour) was 17.1 ng/mL and the “concentration in human plasma” value ([3]; 2 hours) was 17.1 ng/mL. The “concentration in human plasma” value ([3]; 4 hours) was 16.6 ng/mL, the “concentration in human plasma” value ([3]; 8 hours) was 17.5 ng/mL and the half-life at 1 µM (in vitro; Complete) was 7.88 min. The half-life at 1 µM (in vitro; Without NADPH) was 7.71 min, the half-life at 10 µM (in vitro; Complete) was 8.38 min and the half-life at 10 µM (in vitro; Without NADPH) was 7.58 min. For the same compound, the “detected in the receiving medium (passing through the skin)” value [4] was “could not be detected”, the “Test Article remaining, percent” value [5, 7] was 100% and the “Test Article remaining, percent” value [5, 8] was 21.1%. For the same compound, the “Test Article remaining, percent” value [5, 9] was 4.91%, the “Test Article remaining, percent” value [5, 10] was 1.80% and the “Test Article remaining, percent” value [5, 11] was 0.70%. The “Test Article remaining, percent” value [5, 12] was 100%, the “Test Article remaining, percent” value [5, 13] was 22.0% and the “Test Article remaining, percent” value [5, 14] was 4.86%. The “Test Article remaining, percent” value [5, 15] was 1.43%, the “Test Article remaining, percent” value [5, 16] was 0.65% and the “Test Article remaining, percent” value [5, 17] was 100%. The “Test Article remaining, percent” value [5, 18] was 24.1%, the “Test Article remaining, percent” value [5, 19] was 6.55% and the “Test Article remaining, percent” value [5, 20] was 2.18%. The “Test Article remaining, percent” value [5, 21] was 0.89%, the “Test Article remaining, percent” value [5, 22] was 100% and the “Test Article remaining, percent” value [5, 23] was 21.9%. For the same compound, the “Test Article remaining, percent” value [5, 24] was 4.64%, the “Test Article remaining, percent” value [5, 25] was 1.48% and the “Test Article remaining, percent” value [5, 26] was 0.55%. For the same compound, the k constant ([5]; 1 μM, Complete) was −0.0880, the k constant ([5]; 1 μM, Without NADPH) was −0.0899 and the k constant ([5]; 10 μM, Complete) was −0.0827. It also gave a k constant ([5]; 10 μM, Without NADPH) of −0.0914, a fold induction at 2830 µM [6, 27] of 103 to 180 and a fold induction at 2830 µM [6, 28] of 12. It also gave a fold induction at 2830 µM [6, 29] of 33 to 43.
